Results as given in ChEMBL document CHEMBL1149234, “Exploration of the P1 SAR of aldehyde cathepsin K inhibitors” (Bioorg Med Chem Lett, 2004).

Biological target: T1, Cathepsin K (Homo sapiens, UniProt P43235)
T1 sequence (P43235 whole entry): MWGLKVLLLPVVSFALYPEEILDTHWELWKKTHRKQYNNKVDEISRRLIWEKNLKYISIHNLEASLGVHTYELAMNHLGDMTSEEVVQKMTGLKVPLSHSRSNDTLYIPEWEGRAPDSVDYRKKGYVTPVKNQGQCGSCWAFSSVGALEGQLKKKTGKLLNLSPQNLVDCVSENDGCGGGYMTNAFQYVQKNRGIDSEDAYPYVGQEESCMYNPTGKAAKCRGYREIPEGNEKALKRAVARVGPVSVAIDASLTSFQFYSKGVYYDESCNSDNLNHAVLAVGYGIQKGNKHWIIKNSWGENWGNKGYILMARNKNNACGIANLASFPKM
Test: Inhibitory activity against recombinant human cathepsin K

Row | IC50 [nM] | SMILES
1 | 23 | CCCCCC[C@@H](C=O)NC(=O)OC(C)(C)C
2 | 15 | CC(C)(C)OC(=O)N[C@H](C=O)CCCc1ccccc1
3 | 370 | COC(=O)NC[C@@H](C=O)NC(=O)OC(C)(C)C
4 | 130 | CCC(C)[C@H](C=O)NC(=O)OC(C)(C)C (stereo partly drawn)
5 | 250 | CCC(C)[C@@H](C=O)NC(=O)OC(C)(C)C (stereo partly drawn)
6 | 16 | CC(C)(C)OC(=O)N[C@H](C=O)CCCC1CCCCC1
7 | 36 | CC(C)(C)OC(=O)N[C@H](C=O)CC1CCCCC1
8 | 110 | CCCCC[C@@H](C=O)NC(=O)OC(C)(C)C
9 | 78 | CSCC[C@@H](C=O)NC(=O)OC(C)(C)C
10 | 51 | CC(C)(C)OC(=O)N[C@H](C=O)c1ccccc1
11 | 30 | CC(C)(C)OC(=O)N[C@H](C=O)CCc1ccccc1
12 | 50 | CN(CCCC[C@@H](C=O)NC(=O)OC(C)(C)C)C(=O)C(F)(F)F
13 | 160 | CC(C)[C@@H](C=O)NC(=O)OC(C)(C)C
14 | 41 | CC(C)(C)OC(=O)N[C@H](C=O)CCCCNC(=O)C(F)(F)F
15 | 29 | CN(CCC[C@@H](C=O)NC(=O)OC(C)(C)C)C(=O)C(F)(F)F
16 | 680 | COCC[C@@H](C=O)NC(=O)OC(C)(C)C
17 | 98 | CN(CC[C@@H](C=O)NC(=O)OC(C)(C)C)C(=O)C(F)(F)F
18 | 58 | CC[C@@H](C=O)NC(=O)OC(C)(C)C
19 | 83 | CCSC[C@@H](C=O)NC(=O)OC(C)(C)C

Row | IC50 [nM] | SMILES
20 | 250 | CC(C)(C)C[C@@H](C=O)NC(=O)OC(C)(C)C
21 | 660 | CCOC[C@@H](C=O)NC(=O)OC(C)(C)C
22 | 110 | CC(C)(C)OC(=O)N[C@H](C=O)Cc1ccccc1
23 | 150 | C/C=C/C[C@@H](C=O)NC(=O)OC(C)(C)C
24 | 38 | CCC[C@@H](C=O)NC(=O)OC(C)(C)C
25 | 410 | CC#CC[C@@H](C=O)NC(=O)OC(C)(C)C
26 | 200 | C[C@@H](C=O)NC(=O)OC(C)(C)C
27 | 52000 | CC(C)(C)OC(=O)N[C@H](C=O)C(C)(C)C
28 | 5800 | CC(C)(C)OC(=O)NCC=O
29 | 87 | CC(C)(C)OC(=O)N[C@H](C=O)CCCC(F)(F)F
30 | 26 | CC(C)(C)OC(=O)N[C@H](C=O)CCC1CCCCC1
31 | 15 | COC(=O)NCCCC[C@@H](C=O)NC(=O)OC(C)(C)C
32 | 41 | C/C=C\C[C@@H](C=O)NC(=O)OC(C)(C)C
33 | 79 | C=C(C)C[C@@H](C=O)NC(=O)OC(C)(C)C
34 | 40 | CC(C)(C)OC(=O)N[C@H](C=O)CSCc1ccccc1
35 | 38 | CC(C)(C)OC(=O)N[C@H](C=O)COCc1ccccc1
36 | 31 | CC(C)C[C@@H](C=O)NC(=O)OC(C)(C)C
37 | 51 | CCCC[C@@H](C=O)NC(=O)OC(C)(C)C
38 | 0.11 | CCCC[C@@H](C=O)NC(=O)[C@H](CC(C)C)NC(=O)OCc1ccccc1 [CALPEPTIN]
